Drawing on ChEMBL document CHEMBL1649413, “Structure-activity relationship of 4(5)-aryl-2-amino-1H-imidazoles, N1-substituted 2-aminoimidazoles and imidazo[1,2-a]pyrimidinium salts as inhibitors of biofilm formation by Salmonella typhimurium and Pseudomonas aeruginosa” (J Med Chem, 2011), this text covers inhibition and IC50 for 30 compounds.

The source made the active and inactive calls. The rule behind the calls is not given here.

Assay [1] deals with Salmonella typhimurium. The assay is described as follows: Antimicrobial activity against Salmonella Typhimurium ATCC 14028 assessed as inhibition of planktonic growth at 400 uM at 25 degC after 24 hrs. It is filed as functional, organism-based. The following applies: Salmonella enterica subsp. enterica serovar Typhimurium.
Assay [2] deals with Salmonella typhimurium. In words: Antibiofilm activity in Salmonella Typhimurium ATCC 14028 assessed as inhibition of biofilm formation at 25 degC after 24 hrs. Type of assay: functional, organism-based, Salmonella enterica subsp. enterica serovar Typhimurium. As to conditions: Salmonella enterica, ATCC 14028, 24 h.
For assay [3], the system named is Salmonella typhimurium. In words: Antimicrobial activity against Salmonella Typhimurium ATCC 14028 assessed as inhibition of planktonic growth at 40 uM at 25 degC after 24 hrs. It is filed as functional, organism-based. As to conditions: Salmonella enterica subsp. enterica serovar Typhimurium.
Assay [4] has as its system Salmonella typhimurium. In words: Antimicrobial activity against Salmonella Typhimurium ATCC 14028 assessed as inhibition of planktonic growth at 4 uM at 25 degC after 24 hrs. It is filed as functional, organism-based. As to conditions: Salmonella enterica subsp. enterica serovar Typhimurium.
Assay [5] concerns Salmonella typhimurium. In words: Antimicrobial activity against Salmonella Typhimurium ATCC 14028 assessed as inhibition of planktonic growth at 20 uM at 25 degC after 24 hrs. Type of assay: functional, organism-based. As to conditions: Salmonella enterica subsp. enterica serovar Typhimurium.
Assay [6] deals with Pseudomonas aeruginosa. The assay is described as follows: Antibiofilm activity in Pseudomonas aeruginosa assessed as inhibition of biofilm formation at 25 degC after 24 hrs. It is filed as functional, organism-based.
In assay [7] the test system is Pseudomonas aeruginosa. In words: Antimicrobial activity against Pseudomonas aeruginosa assessed as inhibition of planktonic growth at 40 uM at 25 degC after 24 hrs. Type of assay: functional, organism-based.
Assay [8] concerns Pseudomonas aeruginosa. In words: Antimicrobial activity against Pseudomonas aeruginosa assessed as inhibition of planktonic growth at 10 uM at 25 degC after 24 hrs. It is filed as functional, organism-based.
Assay [9] relates to Pseudomonas aeruginosa. The assay is described as follows: Antimicrobial activity against Pseudomonas aeruginosa assessed as inhibition of planktonic growth at 20 uM at 25 degC after 24 hrs. Type of assay: functional, organism-based.
Assay [10] deals with Salmonella typhimurium. In words: Antimicrobial activity against Salmonella Typhimurium ATCC 14028 assessed as inhibition of planktonic growth at 10 uM at 25 degC after 24 hrs. It is filed as functional, organism-based. As to conditions: Salmonella enterica subsp. enterica serovar Typhimurium.

For `Nc1nc(-c2ccc(F)cc2)c(C(=O)Nc2ccccc2)[nH]1`, the inhibition entry in assay [1] was “Active”. In addition, the IC50 (in general, the point on the concentration scale where inhibition reaches its midpoint) in assay [2] was found to be 182 µM. Also, the inhibition result in assay [3] and in assay [4] was “inactive” in each case.
On to `CCCCCCCC[n+]1c(-c2ccc(OC)cc2)cn2cccnc21.[O-][Cl+3]([O-])([O-])[O-]`, for which the values for the IC50 in assay [2] and in assay [6] were 34.8 µM and 8.7 µM, respectively. Besides, the inhibition entry in [3] and in assay [5] was “Active” in each case. In addition, the inhibition result in assay [7], in [8] and in [9] was “inactive” throughout.
For the compound `CCCCCCCCn1c(-c2cccc3ccccc23)cnc1N`, the values for the concentration for half-maximal inhibition (IC50) in assay [2] and in assay [6] were 6.6 µM and 17.6 µM, respectively. The inhibition entry in assay [10], in assay [4] and in assay [8] was “inactive” each time. Moreover, in [9], the inhibition result was “Active”.
`CCCCCCCCn1c(-c2ccc(S(C)(=O)=O)cc2)cnc1N`: the figures for the IC50 in assay [2] and in assay [6] were 29.1 µM and 4.9 µM, respectively. In addition, the inhibition result in [3] was “Active”. Also, the inhibition result in assay [5] and in assay [9] was “inactive” each time.
`CCCCCCCCCCCCn1c(-c2ccc(Cl)cc2)cnc1N`: the values for the IC50 in [2] and in [6] were 6.2 µM and 49.7 µM, respectively. The inhibition result in [5], in [10] and in [4] was “inactive” each time.
Turning to `Nc1ncc(-c2ccc(Cl)cc2)n1C1CCCCCCC1`, the half-inhibitory concentration (IC50) was determined as 12.9 µM in assay [2] and 48.7 µM in assay [6]. The inhibition result in assay [3] and in [5] was “Active” in each case. Besides, the inhibition entry in assay [10] was “inactive”.
With `CCCCCCCCCCCn1c(-c2ccccc2)cnc1N`, the IC50 in assay [2] amounted to 7.2 µM; in assay [6], 16.3 µM. The inhibition result in assay [3] and in assay [10] was “Active” throughout. In addition, the inhibition result in assay [4], in [8] and in assay [9] was “inactive” throughout.
With `Nc1nc(-c2ccccc2)c(-c2ccc(C(F)(F)F)cc2)[nH]1`, in [1], the inhibition result was “Active”. For the same compound, the IC50 in [2] came out at 29.2 µM. Also, the inhibition entry in [3] and in assay [4] was “inactive” throughout.
On to `CCCCn1c(-c2ccc(-c3ccccc3)cc2)cnc1N`, for which the results for the IC50 in assay [2] and in [6] were 21.1 µM and 41.6 µM, respectively. Also, the inhibition entry in assay [3] and in [5] was “Active” throughout.
Consider `CCCCCCCC[n+]1c(-c2cccc(Br)c2)cn2cccnc21.[O-][Cl+3]([O-])([O-])[O-]`, for which the concentration for half-maximal inhibition (IC50) in assay [2] was 7.3 µM; in [6] it was 7 µM. The inhibition entry in [5] and in assay [7] was “Active” each time. Further, the inhibition entry in assay [10] and in assay [9] was “inactive” in each case.
With `Nc1ncc(-c2ccc(-c3ccccc3)cc2)n1C1CCCCCC1`, the results for the IC50 in assay [2] and in [6] were 12.5 µM and 6.6 µM, respectively. Also, the inhibition entry in assay [3], in assay [5] and in assay [10] was “Active” each time.
For the compound `CCCCCCCCCCCn1c(-c2ccc(Cl)cc2)cnc1N`, the IC50 in assay [2] was 4.1 µM; in assay [6] it was 44 µM. In addition, the inhibition result in [5] and in assay [10] was “Active” throughout. For the same compound, the inhibition result in [4] was “inactive”.
On to `CCCCCCCCCCn1c(-c2ccccc2)cnc1N`, for which the IC50 in [2] was 6.1 µM; in assay [6], 15 µM. The inhibition entry in assay [5] and in assay [10] was “Active” throughout. Moreover, the inhibition entry in [4], in [8] and in [9] was “inactive” throughout.
Regarding `CCCCCCCCCCCCCn1c(-c2ccc(Cl)cc2)cnc1N`, the concentration for half-maximal inhibition (IC50) in assay [2] came out at 19.5 µM; in assay [6] it was 33.9 µM. Also, the inhibition result in [3] and in [5] was “inactive” each time.
Turning to `CCCCCCCCn1c(-c2ccc(-c3ccccc3)cc2)cnc1N`, the results for the IC50 in assay [2] and in [6] were 3.3 µM and 8.9 µM, respectively. Also, the inhibition entry in assay [3] and in [5] was “Active” throughout. The inhibition result in assay [4], in [8] and in [9] was “inactive” each time.
Consider `CCCCCCCCCn1c(-c2ccc(Cl)cc2)cnc1N`, for which the IC50 was determined as 4 µM in assay [2] and 8 µM in assay [6]. Further, the inhibition entry in assay [5], in [10] and in [9] was “Active” each time. Also, the inhibition result in assay [4] and in assay [8] was “inactive” each time.
As to `CCCCCCCCn1c(-c2ccccc2)cnc1N`, the half-maximal inhibitory concentration (IC50) in assay [2] was found to be 11.9 µM; in assay [6] it was 18.5 µM. For the same compound, the inhibition result in assay [5] is “Active”. In addition, the inhibition entry in assay [10], in [7] and in assay [9] was “inactive” in each case.
As for `O=[N+]([O-])c1ccc(-c2cn3cccnc3[n+]2C2CCCCCCCCCCC2)cc1.[O-][Cl+3]([O-])([O-])[O-]`, the IC50 in [2] was 9.8 µM; in [6] it was 15.1 µM. Further, the inhibition result in [5], in assay [10] and in [8] was “inactive” each time. Further, the inhibition result in assay [7] and in assay [9] was “Active” each time.
For the compound `CCCCCCCC[n+]1c(-c2ccc(SC)cc2)cn2cccnc21.[O-][Cl+3]([O-])([O-])[O-]`, the values for the concentration for half-maximal inhibition (IC50) in assay [2] and in assay [6] were 20.7 µM and 9.3 µM, respectively. In addition, the inhibition entry in assay [3], in [5] and in assay [7] was “Active” in each case. Moreover, in [9], the inhibition result was “inactive”.
As for `CCCCCCCCCCn1c(-c2ccc(Cl)cc2)cnc1N`, the IC50 in [2] stood at 4.1 µM; in assay [6], 22.3 µM. The inhibition entry in assay [10] was “Active”. The inhibition result in assay [4], in assay [7] and in [9] was “inactive” in each case.
As for `CCCCCCCCn1c(-c2ccc(Cl)c(Cl)c2)cnc1N`, the IC50 in assay [2] stood at 3.7 µM. Also, the inhibition entry in assay [10] was “Active”. Moreover, the inhibition result in assay [4] is “inactive”.
`CCCCCCCCCCCCCn1c(-c2ccccc2)cnc1N`: the figures for the IC50 in assay [2] and in assay [6] were 6 µM and 27.3 µM, respectively. For the same compound, the inhibition entry in [3] and in assay [10] was “Active” in each case. Further, the inhibition entry in [4], in assay [7] and in [9] was “inactive” in each case.
Consider `CCCCCCCC[n+]1c(-c2ccc(F)c(F)c2)cn2cccnc21.[O-][Cl+3]([O-])([O-])[O-]`, for which the IC50 stood at 3.8 µM in assay [2] and 12.7 µM in assay [6]. In addition, the inhibition result in assay [10], in assay [7], in [8] and in [9] was “Active” throughout. Besides, the inhibition entry in [4] is “inactive”.
Consider `Nc1ncc(-c2ccc(-c3ccccc3)cc2)n1C1CCCCC1`, for which the IC50 in assay [2] stood at 12.6 µM; in assay [6], 69.7 µM. Also, the inhibition entry in assay [3] and in assay [5] was “Active” throughout. Moreover, the inhibition result in [10] was “inactive”.
As for `CCCCCCCC[n+]1c(-c2ccc([N+](=O)[O-])cc2)cn2cccnc21.[O-][Cl+3]([O-])([O-])[O-]`, the IC50 in [2] worked out at 63.6 µM; in assay [6] it was 18.7 µM. Also, the inhibition entry in assay [7] is “Active”. In addition, the inhibition result in assay [8] and in [9] was “inactive” throughout.
As to `CCCCn1c(-c2ccc(Cl)cc2)cnc1N`, the IC50 in assay [2] turned out to be 57.8 µM; in assay [6] it was 16.7 µM. Moreover, the inhibition result in [7] and in [9] was “inactive” throughout.
As for `CCCCCCCC[n+]1c(-c2ccc(-c3ccc(-c4ccccc4)cc3)cc2)cn2cccnc21.[O-][Cl+3]([O-])([O-])[O-]`, in [2], the IC50 is 5 µM. The inhibition result in assay [10] is “Active”. Besides, the inhibition result in [4] is “inactive”.
On to `CCCCCCCC[n+]1c(-c2ccc(F)cc2)cn2cccnc21.[O-][Cl+3]([O-])([O-])[O-]`, for which the IC50 in assay [2] came out at 35.7 µM; in assay [6], 19.5 µM. Moreover, the inhibition result in assay [3], in assay [5] and in assay [9] was “inactive” throughout. Also, the inhibition entry in assay [7] was “Active”.
For the compound `CCCCCCCn1c(-c2ccc(-c3ccccc3)cc2)cnc1N`, the IC50 came to 9.3 µM in assay [2] and 25.2 µM in [6]. In addition, the inhibition result in assay [5], in [7] and in assay [9] was “Active” each time. Moreover, the inhibition result in [10] is “inactive”.
On to `CCCCCCCCn1c(-c2cccc(Br)c2)cnc1N`, for which the 50% inhibitory concentration (IC50) in [2] was 11.2 µM; in [6], 40.6 µM. Besides, the inhibition entry in assay [5] and in assay [7] was “Active” in each case. Besides, the inhibition entry in assay [10] and in assay [9] was “inactive” each time.
